Source: patent US6764682B1, “Adjuvant compositions containing more than one adjuvant” (priority 1994, dated 2004)

Legend:
Type in all cases: in vivo
[1] = tested on: peptide-specific IgG antibodies; test: Guinea pig antibody responses to synthetic peptides formulated with different adjuvants (peptide-specific ELISA); details: mean titer of three guinea pigs, three injections
CLTB-36 = test: Guinea pig antibody response to CLTB-36 in different adjuvants, ELISA titer against CLTB-36; details: guinea pigs (n = 3) immunized with 20 μg CLTB-36 in the named adjuvant; boosters at 2, 4 and 6 weeks
CLTB-56 = test: Guinea pig antibody response to CLTB-36 in different adjuvants, ELISA titer against CLTB-56; details: guinea pigs (n = 3) immunized with 20 μg CLTB-36 in the named adjuvant; boosters at 2, 4 and 6 weeks
[2] = adjuvant BAY R1005, 100 μg peptide per dose (CLTB-36 20 μg)
[3] = adjuvant CFA, 100 μg peptide per dose (CLTB-36 20 μg)
[4] = adjuvant OTH, 100 μg peptide per dose (CLTB-36 20 μg)
[5] = adjuvant TPC, 100 μg peptide per dose (CLTB-36 20 μg)
[6] = adjuvant alum, 100 μg peptide per dose (CLTB-36 20 μg)
[7] = peptide in PBS (no adjuvant), 100 μg peptide per dose (CLTB-36 20 μg)
[8] = Table 3, adjuvant BAY R1005 + alum, 100 μg peptide per dose

## GPKEPFRDYVDRFYKNRKRIHIGPGRAFYTTKN [CLTB-36]
[1]; [2]
  Peptide-Specific Antibody Titre: 72,800
[1]; [3]
  Peptide-Specific Antibody Titre: 256,000
[1]; [4]
  Peptide-Specific Antibody Titre: 6,400
[1]; [5]
  Peptide-Specific Antibody Titre: 3,200
[1]; [6]
  Peptide-Specific Antibody Titre: 10,000
[1]; [7]
  Peptide-Specific Antibody Titre: 400

## TVGKKTYQVEACCSNLSYVKFGM [TBP2-3]
[1]; [2]
  Peptide-Specific Antibody Titre: 32,500
[1]; [3]
  Peptide-Specific Antibody Titre: 12,500
[1]; [6]
  Peptide-Specific Antibody Titre: 43,333
[1]; [7]
  Peptide-Specific Antibody Titre: 400

## PIVNKQSCSISNIETVIEFQQ [RSV-FND2]
[1]; [8]
  Peptide-Specific Antibody Titre: 25,600
[1]; Table 3, adjuvant BAY R1005, 100 μg peptide per dose
  Peptide-Specific Antibody Titre: 10,000
[1]; Table 3, adjuvant alum, 100 μg peptide per dose
  Peptide-Specific Antibody Titre: 7,800
[1]; [2]
  Peptide-Specific Antibody Titre: 10,000
[1]; [3]
  Peptide-Specific Antibody Titre: 12,800
[1]; [4]
  Peptide-Specific Antibody Titre: 6,400
[1]; [5]
  Peptide-Specific Antibody Titre: 3,200
[1]; [6]
  Peptide-Specific Antibody Titre: 7,800
[1]; [7]
  Peptide-Specific Antibody Titre: 400

## PDPGDLVEYIMNYTGNQQSRWGLGSPNCHGPDWASPVCQRHSP [RV-EP27]
[1]; [3]
  Peptide-Specific Antibody Titre: 128,000
[1]; [4]
  Peptide-Specific Antibody Titre: 25,600
[1]; [6]
  Peptide-Specific Antibody Titre: 12,800
[1]; [7]
  Peptide-Specific Antibody Titre: 400

## CC(=O)O.CCCCCCCCCCCCCCCCCCN(C(=O)CCCCCCCCCCC)[C@@H]1O[C@H](CO)[C@@H](O)[C@H](O)[C@H]1NC(=O)[C@@H](N)CC(C)C [BAY R1005, N-(2-deoxy-2-L-leucylamino-β-D-glucopyranosyl)-N-octadecyldodecanamide acetate]
CLTB-36
  Average titers against CLTB-36: 62,500
CLTB-56
  Average titers against CLTB-56: 4,333

## QSYSIMSIIKEEVLAYAVQLPLPLYGVIDTP [RSV-F]
[1]; [8]
  Peptide-Specific Antibody Titre: 128,000
[1]; [2]
  Peptide-Specific Antibody Titre: 3,850
[1]; [3]
  Peptide-Specific Antibody Titre: 6,400
[1]; [4]
  Peptide-Specific Antibody Titre: 3,200
[1]; [5]
  Peptide-Specific Antibody Titre: 1,600
[1]; [6]
  Peptide-Specific Antibody Titre: 32,000
[1]; [7]
  Peptide-Specific Antibody Titre: 500

## NQITSALSTQQEFRDLKKYLPSKDKSVVSLQDRAC [HIBP1-5E]
[1]; [2]
  Peptide-Specific Antibody Titre: 32,500
[1]; [3]
  Peptide-Specific Antibody Titre: 312,500
[1]; [5]
  Peptide-Specific Antibody Titre: 1,600
[1]; [6]
  Peptide-Specific Antibody Titre: 8,333
[1]; [7]
  Peptide-Specific Antibody Titre: 200

## CSNNPTCWAICKRIPNKKPGKKT [RSV-G2]
[1]; [2]
  Peptide-Specific Antibody Titre: 3,200
[1]; [3]
  Peptide-Specific Antibody Titre: 128,000
[1]; [5]
  Peptide-Specific Antibody Titre: 1,600
[1]; [6]
  Peptide-Specific Antibody Titre: 31,500
[1]; [7]
  Peptide-Specific Antibody Titre: 1,280

## TKQRQNKPPSKPNNDFHFEVFNFVPC [RSV-G1]
[1]; [2]
  Peptide-Specific Antibody Titre: 31,500
[1]; [3]
  Peptide-Specific Antibody Titre: 315,000
[1]; [5]
  Peptide-Specific Antibody Titre: 6,400
[1]; [6]
  Peptide-Specific Antibody Titre: 128,000
[1]; [7]
  Peptide-Specific Antibody Titre: 1,600

## GPKEPFRDYVDRFYKNTRKRIRIQRGGRAFVTIGK [CLTB-72]
[1]; [2]
  Peptide-Specific Antibody Titre: 45,800
[1]; [3]
  Peptide-Specific Antibody Titre: 312,500
[1]; [4]
  Peptide-Specific Antibody Titre: 6,400
[1]; [5]
  Peptide-Specific Antibody Titre: 3,200
[1]; [6]
  Peptide-Specific Antibody Titre: 37,500
[1]; [7]
  Peptide-Specific Antibody Titre: 2,333

## GPKEPFRDYVDRFYKNTRQSTPIGLGQALYTTRG [CLTB-76]
[1]; [2]
  Peptide-Specific Antibody Titre: 45,833
[1]; [3]
  Peptide-Specific Antibody Titre: 625,000
[1]; [4]
  Peptide-Specific Antibody Titre: 6,400
[1]; [5]
  Peptide-Specific Antibody Titre: 3,200
[1]; [6]
  Peptide-Specific Antibody Titre: 9,166
[1]; [7]
  Peptide-Specific Antibody Titre: 1,833

## PQPGPQPPQPPQPQPEAPAPQPPC [69K-P1]
[1]; [2]
  Peptide-Specific Antibody Titre: 32,500
[1]; [3]
  Peptide-Specific Antibody Titre: 10,000
[1]; [5]
  Peptide-Specific Antibody Titre: 1,600
[1]; [6]
  Peptide-Specific Antibody Titre: 32,500
[1]; [7]
  Peptide-Specific Antibody Titre: 800

## IKEIDESESEDYAKEGFRAP [PSP-AA]
[1]; [3]
  Peptide-Specific Antibody Titre: 12,500
[1]; [6]
  Peptide-Specific Antibody Titre: 1,600
[1]; [7]
  Peptide-Specific Antibody Titre: 200
